Among the data in US9598433B2, “Hepatitis C virus inhibitors” (BRISTOL-MYERS SQUIBB COMPANY, priority 2012, dated 2017) are ring closure, isolated yield, EC50 and ring closure, yield after HPLC values, retold here.

The conditions of data set [1]: rcm bond, 15-membered ring, Hoveyda-Grubbs II (5 mol%), DCE, 80.0 °C.
In data set [2] the test system is HCV genotype 1a (H77 strain) replicon in HUH-7 cells. Description: HCV replicon luciferase reporter assay, genotype 1a. It is filed as cell-based. Particulars: Hepatitis C virus, 72 h, genotype 1a replicon, 3 days incubation. Summed up: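 Stable HUH-7 line carrying luciferase-reporter genotype 1a (H77) replicon with adaptive NS3 P1496L and NS5A S2204I mutations; 3.0×10^3 cells/well in 4% FCS, 0.5% DMSO, twenty-point 3-fold titration, 3 days at 37 °C. Renilla luminescence with 7.5 μM EnduRen; EC50 by four-parameter logistic fit; CC50 by multiplexed Cell Titer-Blue.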

In data set [3] the test system is HCV genotype 1b (Con1) replicon in HUH-7 cells. The experiment in a line: HCV replicon luciferase reporter assay, genotype 1b. In kind it is cell-based. Particulars: Hepatitis C virus, 72 h, genotype 1b replicon, 3 days incubation. Summed up: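 The HUH-7 cells stably carried a genotype 1b Con1 replicon with a Renilla luciferase reporter and the S1179I adaptive mutation. Luminescence was read after 2 h with 7.5 μM EnduRen, and EC50s came from four-parameter logistic fits.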
A general note: A replicon is a self-replicating genome or part of one, used to study replication in cells.

The conditions of data set [4]: from C=CCC[C@@H](C)O[C@@H](C)C(NC(=O)OC(C)(C)C)C(=O)N1C[C@H](Oc2nccc3cc(OC)ccc23)C[C@H]1C(=O)N[C@]1(C(=O)NS(=O)(=O)C2(C)CC2)C[C@H]1C=C; rcm bond; 15-membered ring; Hoveyda-Grubbs II (5 mol%); DCE; 7.2 mM; 80.0 °C; 2.0 h.

Where two headings read alike, the source gives them in different places.

As for `CC[C@@H]1OCCC/C=C\[C@@H]2C[C@@]2(C(=O)NS(=O)(=O)C2(C)CC2)NC(=O)[C@@H]2C[C@@H](O)CN2C(=O)[C@H]1NC(=O)OC(C)(C)C`, the ring closure, isolated yield in data set [1] (from C=CCCCO[C@@H](CC)[C@H](NC(=O)OC(C)(C)C)C(=O)N1C[C@H](O)C[C@H]1C(=O)N[C@]1(C(=O)NS(=O)(=O)C2(C)CC2)C[C@H]1C=C, 7.5 mM, 74.0 h) was determined as 22%. Take `C[C@@H]1CC/C=C\[C@@H]2C[C@@]2(C(=O)NS(=O)(=O)C2(C)CC2)NC(=O)[C@@H]2C[C@@H](O)CN2C(=O)[C@@H](NC(=O)OC(C)(C)C)[C@H](C)O1`: in data set [1] (from C=CCC[C@@H](C)O[C@@H](C)[C@H](NC(=O)OC(C)(C)C)C(=O)N1C[C@H](O)C[C@H]1C(=O)N[C@]1(C(=O)NS(=O)(=O)C2(C)CC2)C[C@H]1C=C, 8.0 mM, 2.0 h), the ring closure, isolated yield was 24%. Regarding `CC[C@@H]1O[C@H](C)CC/C=C\[C@@H]2C[C@@]2(C(=O)NS(=O)(=O)C2(CF)CC2)NC(=O)[C@@H]2C[C@@H](O)CN2C(=O)[C@H]1NC(=O)OC(C)(C)C`, the ring closure, isolated yield in data set [1] (from C=CCC[C@@H](C)O[C@@H](CC)[C@H](NC(=O)OC(C)(C)C)C(=O)N1C[C@H](O)C[C@H]1C(=O)N[C@]1(C(=O)NS(=O)(=O)C2(CF)CC2)C[C@H]1C=C, 9.2 mM, 16.0 h) was found to be 22%. The compound `CC[C@@H]1O[C@H](C)CCC=C[C@@H]2C[C@@]2(C(=O)NS(=O)(=O)C2(C)CC2)NC(=O)[C@@H]2C[C@@H](O)CN2C(=O)[C@H]1NC(=O)OC(C)(C)C` came in with a ring closure, isolated yield in data set [1] (from C=CCC[C@@H](C)O[C@@H](CC)[C@H](NC(=O)OC(C)(C)C)C(=O)N1C[C@H](O)C[C@H]1C(=O)N[C@]1(C(=O)NS(=O)(=O)C2(C)CC2)C[C@H]1C=C, 8.7 mM, 74.0 h, 5 steps) of 10%.

`CC[C@@H]1O[C@H](C)CC/C=C\[C@@H]2C[C@@]2(C(=O)NS(=O)(=O)C2CC2)NC(=O)[C@@H]2C[C@@H](O)CN2C(=O)[C@H]1NC(=O)OC(C)(C)C`: the ring closure, isolated yield in data set [1] (from C=CCC[C@@H](C)O[C@@H](CC)[C@H](NC(=O)OC(C)(C)C)C(=O)N1C[C@H](O)C[C@H]1C(=O)N[C@]1(C(=O)NS(=O)(=O)C2CC2)C[C@H]1C=C, 9.8 mM, 4.0 h) worked out at 54%. With `COc1cc(F)cc2c(O[C@@H]3C[C@H]4C(=O)N[C@]5(C(=O)NS(=O)(=O)C6(C)CC6)C[C@H]5/C=C\CC[C@@H](C)O[C@@H](C)[C@H](NC(=O)OC(C)(C)C(F)(F)F)C(=O)N4C3)nccc12` [Compound 2017, 1,1,1-trifluoro-2-methylpropan-2-yl ((2R,6S,7S,9R,13aS,14aR,16aS,Z)-2-((7-fluoro-5-methoxyisoquinolin-1-yl)oxy)-7,9-dimethyl-14a-(((1-methylcyclopropyl)sulfonyl)carbamoyl)-5,16-dioxo-2,3,5,6,7,9,10,11,13a,14,14a,15,16,16a-tetradecahydro-1H-cyclopropa[i]pyrrolo[1,2-e][1,5,8]oxadiazacyclopentadecin-6-yl)carbamate], the EC50 (as a rule, the concentration needed to bring the measured effect to its halfway point) in data set [2] (read-out: LE_1a (EC50)) is 0.89 nM; in data set [2] (read-out: LE_1a (EC50, range)), 0.51 to 1 nM; in data set [3] (read-out: LE_1b (EC50)), 0.42 nM; in data set [3] (read-out: LE_1b (EC50, range)), 0.1 to 0.5 nM. `C[C@@H]1CC/C=C\[C@@H]2C[C@@]2(C(=O)NS(=O)(=O)C2(C)CC2)NC(=O)[C@@H]2C[C@@H](Oc3nccc4c5c(ccc34)OCCO5)CN2C(=O)[C@@H](NC(=O)OC(C)(C)C(C)(F)F)[C@H](C)O1` [Compound 2010, 3,3-difluoro-2-methylbutan-2-yl ((2R,6S,7S,9R,13aS,14aR,16aS,Z)-2-((2,3-dihydro[1,4]dioxino[2,3-f]isoquinolin-7-yl)oxy)-7,9-dimethyl-14a-(((1-methylcyclopropyl)sulfonyl)carbamoyl)-5,16-dioxo-2,3,5,6,7,9,10,11,13a,14,14a,15,16,16a-tetradecahydro-1H-cyclopropa[i]pyrrolo[1,2-e][1,5,8]oxadiazacyclopentadecin-6-yl)carbamate]: the concentration giving a half-maximal response (EC50) lay in the range of 1.01 to 5 nM in data set [2] (read-out: LE_1a (EC50, range)) and 0.51 to 1 nM in data set [3] (read-out: LE_1b (EC50, range)). `COc1ccc2c(O[C@@H]3C[C@H]4C(=O)N[C@]5(C(=O)NS(=O)(=O)C6(C)CC6)C[C@H]5/C=C\CC[C@@H](C)O[C@@H](C)[C@H](NC(=O)OC(C)(C)C(C)(F)F)C(=O)N4C3)nc(-c3ccc(OC(C)C)cn3)cc2c1` [Compound 2012, 3,3-difluoro-2-methylbutan-2-yl ((2R,6S,7S,9R,13a5,14aR,16aS,Z)-2-((3-(5-isopropoxypyridin-2-yl)-6-methoxyisoquinolin-1-yl)oxy)-7,9-dimethyl-14a-(((1-methylcyclopropyl)sulfonyl)carbamoyl)-5,16-dioxo-2,3,5,6,7,9,10,11,13a,14,14a,15,16,16a-tetradecahydro-1H-cyclopropa[i]pyrrolo[1,2-e][1,5,8]oxadiazacyclopentadecin-6-yl)carbamate]: the EC50 in data set [2] (read-out: LE_1a (EC50, range)) was in the range of 0.1 to 0.5 nM; in data set [3] (read-out: LE_1b (EC50, range)) it was 0.1 to 0.5 nM. With `CC[C@@H]1O[C@H](C)CC/C=C\[C@@H]2C[C@@]2(C(=O)NS(=O)(=O)C2(C)CC2)NC(=O)[C@@H]2C[C@@H](Oc3nc4cc(OC)ccc4nc3C(F)(F)F)CN2C(=O)[C@H]1NC(=O)OC(C)(C)C(C)(F)F` [Compound 1016, 3,3-difluoro-2-methylbutan-2-yl ((2R,6S,7S,9R,13aS,14aR,16aS,Z)-7-ethyl-2-((7-methoxy-3-(trifluoromethyl)quinoxalin-2-yl)oxy)-9-methyl-14a-(((1-methylcyclopropyl)sulfonyl)carbamoyl)-5,16-dioxo-2,3,5,6,7,9,10,11,13a,14,14a,15,16,16a-tetradecahydro-1H-cyclopropa[i]pyrrolo[1,2-e][1,5,8]oxadiazacyclopentadecin-6-yl)carbamate], the EC50 is 0.1 to 0.5 nM in data set [2] (read-out: LE_1a (EC50, range)) and 0.1 to 0.5 nM in data set [3] (read-out: LE_1b (EC50, range)). As to `COc1ccc2c(O[C@@H]3C[C@H]4C(=O)N[C@]5(C(=O)NS(=O)(=O)C6(C)CC6)C[C@H]5/C=C\CC[C@@H](C)O[C@@H](C)[C@H](NC(=O)OC(C)(C)C)C(=O)N4C3)nccc2c1` [Compound 2001, tert-butyl ((2R,6S,7S,9R,13aS,14aR,16aS,Z)-2-((6-methoxyisoquinolin-1-yl)oxy)-7,9-dimethyl-14a-(((1-methylcyclopropyl)sulfonyl)carbamoyl)-5,16-dioxo-2,3,5,6,7,9,10,11,13a,14,14a,15,16,16a-tetradecahydro-1H-cyclopropa[i]pyrrolo[1,2-e][1,5,8]oxadiazacyclopentadecin-6-yl)carbamate], the EC50 in data set [2] (read-out: LE_1a (EC50, range)) lay within 1.01 to 5 nM; in data set [3] (read-out: LE_1b (EC50, range)), 1.01 to 5 nM. In addition, the ring closure, yield after HPLC in data set [4] was determined as 30%. Take `CC[C@@H]1O[C@H](C)CC/C=C\[C@@H]2C[C@@]2(C(=O)NS(=O)(=O)C2(C)CC2)NC(=O)[C@@H]2C[C@@H](Oc3nccc4c5c(ccc34)OCCO5)CN2C(=O)[C@H]1NC(=O)OC(C)(C)C(F)(F)F` [Compound 2610, 1,1,1-trifluoro-2-methylpropan-2-yl ((2R,6S,7S,9R,13aS,14aR,16aS,Z)-2-((2,3-dihydro-[1,4]dioxino[2,3-f]isoquinolin-7-yl)oxy)-7-ethyl-9-methyl-14a-(((1-methylcyclopropyl)sulfonyl)carbamoyl)-5,16-dioxo-2,3,5,6,7,9,10,11,13a,14,14a,15,16,16a-tetradecahydro-1H-cyclopropa[i]pyrrolo[1,2-e][1,5,8]oxadiazacyclopentadecin-6-yl)carbamate]: the EC50 was 1.01 to 5 nM in data set [2] (read-out: LE_1a (EC50, range)) and 0.51 to 1 nM in data set [3] (read-out: LE_1b (EC50, range)).
